According to ChEMBL document CHEMBL1145713, “Cyclic peptides from higher plants. 34. Segetalins G and H, structures and estrogen-like activity of cyclic pentapeptides from Vaccaria segetalis” (1997):
Peptide text beside a SMILES is read from it.

Tested on: Rattus norvegicus
Experiment: Estrogen-like activity in ovariectomized SD rat assessed as increase in uterus weight at 2.5 mg/kg, sc administered daily for 14 days
Type: functional
Conditions: route subcutaneous

CC(C)[C@@H]1NC(=O)CNC(=O)[C@H](C)NC(=O)[C@H](Cc2ccc(O)cc2)NC(=O)[C@H](CCCCN)NC1=O [SEGETALIN G] (cyclo(AGVKY))
Activity: 51.2 mg

N=C(N)NCCC[C@@H]1NC(=O)[C@H](Cc2ccc(O)cc2)NC(=O)CNC(=O)[C@H](CO)NC(=O)[C@H](Cc2ccccc2)NC1=O [SEGETALIN H] (cyclo(FSGYR))
Activity: 54.8 mg

CC(C)[C@@H]1NC(=O)CNC(=O)[C@H](C)NC(=O)[C@H](Cc2c[nH]c3ccccc23)NC(=O)[C@H](C)NC1=O [SEGETALIN B] (cyclo(AGVAW))
Activity: 56.3 mg

CC(C)[C@@H]1NC(=O)[C@@H]2CCCN2C(=O)[C@H](C(C)C)NC(=O)CNC(=O)[C@H](C)NC(=O)[C@H](Cc2c[nH]c3ccccc23)NC1=O [SEGETALIN A] (cyclo(AGVPVW))
Activity: 54.4 mg
